Test results reported in patent US20130260458A1, “METHOD OF INDUCING DIFFERENTIATION OF HUMAN PLURIPOTENT STEM CELL INTO HEPATIC PROGENITOR CELL” (NATIONAL UNIVERSITY CORPORATION CHIBA UNIVERSITY, priority 2012, published 2013).

Columns and labels:
Human iPS cells (201B7) [1] = assay: Induction of differentiation into hepatic progenitor cells by growth-promoting agents (real-time quantitative PCR of AFP and DLK-1); assay type: cell-based; settings: iPS cells transfected with FOXA2, GATA4, HEX, C/EBPα three times every three days, 8th day, n=3, ± standard error, ReproFF lane = 100; for α-fetoprotein/RPL19 ratio (mRNA expression): FIG. 3-1; for DLK-1/RPL19 ratio (mRNA expression): FIG. 3-2
Procedure: Human iPS cells (201B7, RIKEN cell bank) were seeded onto a matrigel-coated 6-well plate, and cultured in a medium, ReproFF in accordance with a conventional method under the following conditions: 37° C. and 5% carbon dioxide. A lipofection reagent, Lipofectamine LTX (registered trade mark, Life Technologies Japan Ltd.) was used to transfect 0.5 μg of expression plasmids of FOXA2, GATA4, HEX and C/EBPα, respectively.
As the expression vectors of the transcription factors, used were expression vectors (human TrueClone, OriGene Technologies, Inc., COSMO BIO co., ltd.) in which full-length cDNAs of human FOXA2, GATA4, HEX and CEBPA were each incorporated in the downstream of a potent-promoting agent derived from cytomegalovirus. In the human FOXA2 expression vector (catalog No. sc122913), the full-length cDNA coding human FoxA2 protein was inserted between EcoR1 and Sal1 restricted sites of pCMV6-XL5. In the human GATA4 expression vector (catalog No. sc124037), the full-length cDNA coding human GATA4 protein was inserted between EcoR1 and Sal1 restricted sites of pCMV6-XL4. In the human HEX expression vector (catalog No. sc321626), the full-length cDNA coding human HHEX protein was inserted between Sgf1 and Mlu1 restricted sites of pCMV6-AC. In the human CEBPA expression vector (catalog No. sc303472), the full-length cDNA coding human CEBPA protein was inserted between EcoR1 and Sal1 restricted sites of pCMV6-XL5.
Immediately before transfection, the medium to be used was changed to a medium obtained by adding oncostatin M (Wako Pure Chemical Industries, Ltd.), EGF (Wako Pure Chemical Industries, Ltd.) and retinoic acid (Wako Pure Chemical Industries, Ltd.) to the iPSm(−) medium. Here, the iPSm(−) medium corresponds to a medium obtained by eliminating a basic fibroblast growth factor from a medium for feeder cells of human iPS cells recommended by CiRA at Kyoto University. […]
The transfection of the transcription factors was repeated three times every three days, and, on the 8th day, RNA was extracted using Isogen (NIPPON GENE CO., LTD.). […] Then, the amount of expressed α-fetoprotein (AFP), which was an indicator of hepatic progenitor cells, was analyzed by the real-time quantitative PCR method using a real-time PCR analysis reagent, Fast SYBR Green Master Mix (trade name, Life Technologies Japan Ltd.). […] The amounts of α-fetoprotein (AFP) and Delta-like (DLK)-1 expressed were quantitatively determined as an indicator of hepatic progenitor cells by employing ribosome-related protein (RLP19) as internal standard (each group, n=3).
The real-time quantitative PCR was performed by using the following primers through a PCR cycle including 30 cycles of 5 seconds at 95° C. and 20 seconds at 60° C.

Human iPS cells (201B7) [2] = assay: Expression of transcription factors in iPS cells cultured with single growth-promoting agents (RT-PCR, electrophoresis); assay type: cell-based; settings: iPS cells in iPSm(−) medium with the growth-promoting agent added; PCR and electrophoresis, FIG. 2
Procedure: Reverse transcriptase (Life Technologies Japan Ltd.) was used to synthesize cDNAs of iPS cells, fetal hepatic cells and adult hepatic cells from 3 μg of RNA. The cDNAs were subjected to polymerase chain reaction (PCR) using the following primers to GATA4, FOXA2, HEX, C/EBPα and C/EBPβ, respectively, and to electrophoresis using 2% low-melting agarose (Lonza) and 1×TAE, for investigations on the expression of GATA4, FOXA2, HEX, C/EBPα and C/EBNβ in the iPS cells, fetal hepatic cells and adult hepatic cells.
After electrophoresis, the 2% low-melting agarose was irradiated with ultraviolet rays at 254 nm from a UV transilluminator (UVP LLC, NLMS-20E), and a Polaroid photograph (FUJIFILM Corporation, FP-3000B) thereof was taken with a gel camera (Funakoshi DS-300) to analyze an electrophoretic pattern.
PCR cycles performed included 30 cycles of thermal denaturation: 1 minute at 94° C.; annealing: 1 minute and elongation reaction: 1 minute at 72° C.
Human iPS cells (201B7, RIKEN cell bank) were seeded onto a matrigel-coated 6-well plate, and cultured in a feeder-less medium, ReproFF (trade name, Reprocell Inc.) for culture of stem cells maintained in an undifferentiated state, without using a feeder cell, under conventional conditions: 37° C. and 5% carbon dioxide.
A medium obtained by adding a 20% knock-out serum replacement (Life Technologies Japan Ltd.), 10% Minimum Essential Amino Acids (Life Technologies Japan Ltd.), 2 mM of L-glutamine (Life Technologies Japan Ltd.) and 1 mM of 2-mercaptoethanol to a D-MEM/F12 medium (Dulbecco's Modified Eagle Medium-F12 medium, Sigma-Aldrich Japan) was used as an iPSm(−) medium.
The following growth-promoting agents were added to the iPSm(−) medium, and SOX-17, GATA6, FOXA2, GATA4, HEX, TTR and C/EBPα were expressed in a manner similar to that in Experiment 1.
As the growth-promoting agents, added were bFGF (basic fibroblast growth factor, Wako Pure Chemical Industries, Ltd.), BMP (bone morphogenetic protein)-4 (Wako Pure Chemical Industries, Ltd.), oncostatinM (Wako Pure Chemical Industries, Ltd.), an epidermal growth factor (EGF, Wako Pure Chemical Industries, Ltd.), a nerve growth factor (NGF, R & D Systems, Inc.), TGF-β, (transform growth factor-β, R& D Systems, Inc.), retinoic acid (Sigma-Aldrich Japan) and a hepatic cell growth factor (HGF, Sigma-Aldrich Japan).
RT-PCR to SOX-17, GATA6 and TTR was performed under the following conditions.

| Compound | α-fetoprotein/RPL19 ratio (mRNA expression) (Human iPS cells (201B7) [1]) | DLK-1/RPL19 ratio (mRNA expression) (Human iPS cells (201B7) [1]) | expression of C/EBPα (Human iPS cells (201B7) [2]) | expression of FOXA2 (Human iPS cells (201B7) [2]) | expression of GATA4 (Human iPS cells (201B7) [2]) | expression of GATA6 (Human iPS cells (201B7) [2]) | expression of HEX (Human iPS cells (201B7) [2]) |
| --- | --- | --- | --- | --- | --- | --- | --- |
| C[C@@H]1C[C@H]2[C@@H]3CCC4=CC(=O)C=C[C@]4(C)[C@@]3(F)[C@@H](O)C[C@]2(C)[C@@]1(O)C(=O)CO [dexamethasone] | 50.1±5 | 208±54 |  |  |  |  |  |
| CC1=C(/C=C/C(C)=C/C=C/C(C)=C/C(=O)O)C(C)(C)CCC1 [retinoic acid] | 133±58 | 79±40 |  |  |  |  |  |
| TGF-β: transform growth factor-β, R&D Systems |  |  | not observed to be expressed | not observed to be expressed | not observed to be expressed | observed to be expressed | not observed to be expressed |
